For assay [1], the target named is T1, human RIP1 (Homo sapiens, UniProt Q13546).
T1 construct: made in house; host or cells: Sf-9 insect cells
T1 sequence (Q13546 1-671): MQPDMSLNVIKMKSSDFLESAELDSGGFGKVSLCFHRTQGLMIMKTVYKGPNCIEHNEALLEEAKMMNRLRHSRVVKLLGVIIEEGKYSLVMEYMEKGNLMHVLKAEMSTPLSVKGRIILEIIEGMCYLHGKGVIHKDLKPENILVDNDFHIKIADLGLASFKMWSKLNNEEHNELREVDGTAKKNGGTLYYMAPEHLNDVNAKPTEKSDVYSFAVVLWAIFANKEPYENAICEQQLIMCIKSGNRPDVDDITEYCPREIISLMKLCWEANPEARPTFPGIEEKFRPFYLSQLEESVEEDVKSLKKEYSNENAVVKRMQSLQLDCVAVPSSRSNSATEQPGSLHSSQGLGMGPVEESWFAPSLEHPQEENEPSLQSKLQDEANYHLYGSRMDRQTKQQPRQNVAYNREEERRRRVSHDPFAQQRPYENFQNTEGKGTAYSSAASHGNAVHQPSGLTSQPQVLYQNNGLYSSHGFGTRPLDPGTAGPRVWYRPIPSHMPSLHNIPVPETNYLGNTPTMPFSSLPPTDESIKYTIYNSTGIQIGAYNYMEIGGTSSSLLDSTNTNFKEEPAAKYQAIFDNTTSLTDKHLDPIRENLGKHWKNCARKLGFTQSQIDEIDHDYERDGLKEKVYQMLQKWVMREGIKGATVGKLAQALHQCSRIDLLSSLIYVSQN
Kind of assay: Inhibition of ADP-Glo RIP1 kinase activity. The class given is biochemical. Here is the method: The human RIP1 gene was transduced into Sf-9 insect cells, and the RIP1 protein was purified by Ni+ affinity chromatography and then by S-200 molecular sieve to remove the protein multimers. The obtained RIP1 protein was stored at −70° C., and the activity of the RIP1 protein in catalyzing autophosphorylation was detected by the ADP-Glo™ Kinase Activity Assay Kit (Promega) and the inhibitory activity of the drug against the RIP1 kinase was determined.
100 nL of the compound was transferred to a 384-well assay plate. Two replicate wells were set for each concentration of each drug.
The RIP1 enzyme solution and ATP solution were formulated in an assay buffer (containing 50 mM HEPES pH 7.5, 30 mM MgCl2, 50 mM NaCl, 1 mM DTT, 0.02% CHAPS, and 0.5 mg/ml BSA). Then, 5 μL of the RIP1 enzyme solution (final concentration 50 nM) was added to the assay plate and incubated at room temperature for 1 h. 5 μL of the ATP solution (final concentration 10 μM) was added to the assay plate, and incubate at room temperature for 4 h. Then 5 μL of ADP-Glo reagent was added to the assay plate, and incubated at room temperature for 60 min. 5 μL of a kinase assay solution was added to the assay plate, and incubated at room temperature for 30 min. After readout on Envision, the inhibition rate in each well was calculated from the full-activity well and the background well, and the Ki of the compound was calculated by GraphPad Prism 7 software (using the Morrision equation to fit the curve and calculate the Ki).
(In ADP-Glo the light output rises with the ADP produced.)

In assay [2] the test system is Jurkat (FADD−/−) cells. Kind of assay: Inhibition of TNF-induced programmed Jurkat (FADD−/−) cell necrosis (Cell Titer-Glo). Conditions: 20 h, read-out: Cellular IC50 (M) Jurkat (FADD−/−). Type of assay: cell-based, human. The gist of the method:
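FADD-knockout Jurkat cells (5×10^5/mL) preincubated with compound, then given TNF (final 10 ng/mL) for 20 h at 37 °C. ATP measured by Cell Titer-Glo luminescence, normalised to untreated DMSO wells as 100% viability; IC50 from duplicate wells.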
In general terms: In ATP-based viability assays light output follows the ATP content of the culture.

The mark [3] stands for this setting: Homo sapiens, Jurkat, TNF 10 ng/mL, intracellular ATP level.

Like-named read-outs stand apart in the source and are kept apart here.

By Ki is commonly meant the dissociation constant of the complex between target and ligand, obtained from inhibition or displacement. High values mean lower affinity, low ones higher affinity. Compound `CN1C(=O)[C@@H](NC(=O)c2cn(Cc3ccccc3)nn2)COc2cc3[nH]nc(Cl)c3cc21` [RIP1-035] returned an inhibition constant Ki in assay [1] of 7.8 nM. Further, in assay [2] (setting [3]), the IC50 was found to be 1.94e-09 M.

The compound `CN1C(=O)[C@@H](NC(=O)c2nnc(Cc3ccccc3)o2)COc2cc3occc3cc21` [RIP1-125] had an inhibition constant Ki in assay [1] of 19.6 nM. The IC50 in assay [2] (setting [3]) was found to be 8.43e-10 M.

Consider `CN1C(=O)[C@@H](NC(=O)c2cn(Cc3ccccc3)cn2)COc2cc3[nH]nc(Cl)c3cc21` [RIP1-031], for which the inhibitory constant (Ki) in assay [1] stood at 0.66 nM. In addition, the IC50 in assay [2] (setting [3]) is 2.9e-10 M.

In turn, `CN1C(=O)[C@@H](NC(=O)c2cc(Cc3ccccc3)on2)COc2cc3[nH]nc(Cl)c3cc21` [RIP1-033] returned a Ki in assay [1] of 10.8 nM. Moreover, the IC50 in assay [2] (setting [3]) was determined as 6.8e-10 M.

With `CN1C(=O)[C@@H](NC(=O)c2noc(Cc3ccccc3)n2)COc2cc3occc3cc21` [RIP1-123], in assay [1], the inhibitory constant (Ki) amounted to 23.2 nM. In addition, the IC50 in assay [2] (setting [3]) came to 1.33e-09 M.

In assay [1], `CN1C(=O)[C@@H](NC(=O)c2cn(Cc3ccccc3)nn2)COc2cc3occc3cc21` [RIP1-121] returned a Ki of 32.7 nM. Further, in assay [2] (Homo sapiens, Jurkat), the IC50 is 1.37e-08 M.

For `CN1C(=O)[C@@H](NC(=O)c2nnn(Cc3ccccc3)n2)COc2cc3[nH]nnc3cc21` [RIP1-139], the inhibitory constant (Ki) in assay [1] turned out to be 20.3 nM. Further, the IC50 in assay [2] (setting [3]) came out at 7.81e-10 M.

The compound `CN1C(=O)[C@@H](NC(=O)c2ncn(Cc3ccccc3)n2)COc2ccc3ncccc3c21` [RIP1-098] showed an inhibition constant Ki in assay [1] of 20.9 nM. Further, the IC50 in assay [2] (setting [3]) amounted to 7.25e-10 M.

For `COc1ncnc2cc3c(cc12)N(C)C(=O)[C@@H](NC(=O)c1ncn(Cc2ccccc2)n1)CO3` [RIP1-145], in assay [1], affinity was put at a Ki of 10.5 nM. Besides, the IC50 in assay [2] (setting [3]) worked out at 4.61e-10 M.

In the case of `CN1C(=O)[C@@H](NC(=O)c2cn(Cc3ccccc3)nn2)COc2ccc3cnccc3c21` [RIP1-110], the affinity in assay [1] corresponds to a Ki of 14.6 nM. In addition, in assay [2] (setting [3]), the IC50 is 4.44e-09 M.

In turn, `Cc1nc2cc3c(cc2[nH]1)OC[C@@H](NC(=O)c1cncn1Cc1ccccc1)C(=O)N3C` (stereo in doubt) [RIP1-069] gave a Ki in assay [1] of 31.3 nM. The IC50 in assay [2] (setting [3]) came to 4.52e-09 M.

`CN1C(=O)[C@@H](NC(=O)c2cc(Cc3ccccc3)on2)COc2ccc3cnccc3c21` [RIP1-111]: in assay [1], the Ki stood at 18.5 nM. The IC50 in assay [2] (setting [3]) came out at 1.16e-09 M.

In turn, `Cc1nc2cc3c(cc2[nH]1)OC[C@H](NC(=O)c1ncn(Cc2ccccc2)n1)C(=O)N3C` [RIP1-068] registered an inhibition constant Ki in assay [1] of 42.8 nM. Also, the IC50 in assay [2] (setting [3]) came to 7.62e-09 M.

`CN1C(=O)[C@@H](NC(=O)c2nnc(Cc3ccccc3)[nH]2)COc2ccc3ncccc3c21` [RIP1-097] had a Ki in assay [1] of 23.2 nM. Besides, the IC50 in assay [2] (setting [3]) is 1.2e-09 M; in assay [2] (TNF 10 ng/mL, intracellular ATP level), 2.28e-09 M.

In assay [1], `CN1C(=O)[C@@H](NC(=O)c2nnn(Cc3ccccc3)n2)COc2cc3nccnc3cc21` [RIP1-131] had a Ki of 28.6 nM. For the same compound, in assay [2] (setting [3]), the IC50 came to 1.29e-09 M.

Regarding `CN1C(=O)[C@@H](NC(=O)c2cn(Cc3ccccc3)cn2)COc2ccc3cnccc3c21` [RIP1-109], the affinity in assay [1] corresponds to a Ki of 6.85 nM. In assay [2] (setting [3]), the IC50 was found to be 7.22e-10 M.

In assay [1], `CN1C(=O)[C@@H](NC(=O)c2nnc(Cc3ccccc3)[nH]2)COc2cc3occc3cc21` [RIP1-127] gave a Ki of 16.2 nM. For the same compound, in assay [2] (setting [3]), the IC50 is 3.28e-09 M.

Regarding `CN1C(=O)[C@@H](NC(=O)c2ncn(Cc3ccccc3)n2)COc2ccc3cnccc3c21` [RIP1-108], in assay [1], the affinity, expressed as Ki, was 12.6 nM. Further, the IC50 in assay [2] (setting [3]) turned out to be 1.64e-10 M.

On to `COc1ncnc2cc3c(cc12)N(C)C(=O)[C@@H](NC(=O)c1cn(Cc2ccccc2)cn1)CO3` [RIP1-147], for which, in assay [1], the Ki came to 16.5 nM. Moreover, in assay [2] (setting [3]), the IC50 is 1.69e-09 M.

In the case of `CN1C(=O)[C@@H](NC(=O)c2cc(Cc3ccccc3)on2)COc2cc3[nH]nnc3cc21` [RIP1-142], the Ki in assay [1] is 19.1 nM. Besides, the IC50 in assay [2] (setting [3]) was 1.86e-09 M.

Take `CN1C(=O)[C@@H](NC(=O)c2nnn(Cc3ccccc3)n2)COc2cc3occc3cc21` [RIP1-122]: in assay [1], the Ki is 15.6 nM. In assay [2] (setting [3]), the IC50 was found to be 2.26e-10 M.

`CN1C(=O)[C@@H](NC(=O)c2ncn(Cc3ccccc3)n2)COc2cc3[nH]nnc3cc21` [RIP1-136] yielded an inhibitory constant (Ki) in assay [1] of 17.8 nM. The IC50 in assay [2] (setting [3]) amounted to 9.34e-09 M.

For the origin of these results see patent US20210292340A1, “CELL NECROSIS INHIBITOR, PREPARATION METHOD THEREFOR AND USE THEREOF” (SHANGHAI INSTITUTE OF ORGANIC CHEMISTRY, CHINESE ACADEMY OF …, priority 2018, published 2021).
